Measurements published in patent US20140323300A1, “HERBICIDAL COMPOUNDS” (SYNGENTA LIMITED, priority 2011, published 2014).

How the values were obtained:
Assay type in all cases: in vivo
Setaria faberi (SETFA) [1] = experiment: Post-emergence glasshouse herbicide test; conditions: post-emergence (sprayed after 8 days cultivation), 1000 g/h, evaluated after 13 days, five point scale
Outline: (§1)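 Damage was rated 13 days after treatment on a five-point scale (1 = 0–19%, 5 = 80–100%). The compound, formulated in 50:50 acetone/water with 0.5% Tween 20, was sprayed at 1000 g/h on pots one day (pre) or 8 days (post) after sowing, kept in a glasshouse at 24/16° C, 14 h light, 65% humidity.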

[2] = tested on: Amaranthus retoflexus (AMARE); experiment: Post-emergence glasshouse herbicide test; conditions: post-emergence (sprayed after 8 days cultivation), 1000 g/h, evaluated after 13 days, five point scale
Outline: as §1

[3] = tested on: Alopecurus myosuroides (ALOMY); experiment: Post-emergence glasshouse herbicide test; conditions: post-emergence (sprayed after 8 days cultivation), 1000 g/h, evaluated after 13 days, five point scale
Outline: as §1

[4] = tested on: Ipomoea hederacea (IPOHE); experiment: Post-emergence glasshouse herbicide test; conditions: post-emergence (sprayed after 8 days cultivation), 1000 g/h, evaluated after 13 days, five point scale
Outline: as §1

[5] = tested on: Echinochloa crus-galli (ECHCG); experiment: Post-emergence glasshouse herbicide test; conditions: post-emergence (sprayed after 8 days cultivation), 1000 g/h, evaluated after 13 days, five point scale
Outline: as §1

Solanum nigrum (SOLNI) [6] = experiment: Post-emergence glasshouse herbicide test; conditions: post-emergence (sprayed after 8 days cultivation), 1000 g/h, evaluated after 13 days, five point scale
Outline: as §1

Setaria faberi (SETFA) [7] = experiment: Pre-emergence glasshouse herbicide test; conditions: pre-emergence (sprayed after one day cultivation), 1000 g/h, evaluated after 13 days, five point scale
Outline: as §1

[8] = tested on: Amaranthus retoflexus (AMARE); experiment: Pre-emergence glasshouse herbicide test; conditions: pre-emergence (sprayed after one day cultivation), 1000 g/h, evaluated after 13 days, five point scale
Outline: as §1

[9] = tested on: Alopecurus myosuroides (ALOMY); experiment: Pre-emergence glasshouse herbicide test; conditions: pre-emergence (sprayed after one day cultivation), 1000 g/h, evaluated after 13 days, five point scale
Outline: as §1

[10] = tested on: Ipomoea hederacea (IPOHE); experiment: Pre-emergence glasshouse herbicide test; conditions: pre-emergence (sprayed after one day cultivation), 1000 g/h, evaluated after 13 days, five point scale
Outline: as §1

[11] = tested on: Echinochloa crus-galli (ECHCG); experiment: Pre-emergence glasshouse herbicide test; conditions: pre-emergence (sprayed after one day cultivation), 1000 g/h, evaluated after 13 days, five point scale
Outline: as §1

Solanum nigrum (SOLNI) [12] = experiment: Pre-emergence glasshouse herbicide test; conditions: pre-emergence (sprayed after one day cultivation), 1000 g/h, evaluated after 13 days, five point scale
Outline: as §1

Structure (SMILES)	percentage damage caused to the plant, POST Application SETFA (Setaria faberi (SETFA) [1])	percentage damage caused to the plant, POST Application AMARE [2]	percentage damage caused to the plant, POST Application ALOMY [3]	percentage damage caused to the plant, POST Application IPOHE [4]	percentage damage caused to the plant, POST Application ECHCG [5]	percentage damage caused to the plant, POST Application SOLNI (Solanum nigrum (SOLNI) [6])	percentage damage caused to the plant, PRE Application SETFA (Setaria faberi (SETFA) [7])	percentage damage caused to the plant, PRE Application AMARE [8]	percentage damage caused to the plant, PRE Application ALOMY [9]	percentage damage caused to the plant, PRE Application IPOHE [10]	percentage damage caused to the plant, PRE Application ECHCG [11]	percentage damage caused to the plant, PRE Application SOLNI (Solanum nigrum (SOLNI) [12])
Cc1nc(C(F)(F)F)ccc1-n1ncc(S(C)(=O)=O)c(O)c1=O [Compound 1.029]	4 (4=60-79%)	3 (3=40-59%)	1 (1=0-19%)	2 (2=20-39%)	4 (4=60-79%)	4 (4=60-79%)	4 (4=60-79%)	3 (3=40-59%)	1 (1=0-19%)	2 (2=20-39%)	4 (4=60-79%)	4 (4=60-79%)
Cc1c(-n2ncc(C(C)C)c(O)c2=O)ccc(S(C)(=O)=O)c1C1=NOCC1 [Compound 1.010]	5 (5=80-100%)	5 (5=80-100%)	5 (5=80-100%)	5 (5=80-100%)	5 (5=80-100%)	5 (5=80-100%)	2 (2=20-39%)	5 (5=80-100%)	3 (3=40-59%)	1 (1=0-19%)	3 (3=40-59%)	1 (1=0-19%)
O=c1c(O)c(Cl)cnn1-c1ccc(Cl)cc1Cl [Compound 1.001]	5 (5=80-100%)	5 (5=80-100%)	1 (1=0-19%)	5 (5=80-100%)	5 (5=80-100%)	5 (5=80-100%)	4 (4=60-79%)	4 (4=60-79%)	2 (2=20-39%)	1 (1=0-19%)	4 (4=60-79%)	3 (3=40-59%)
CC(=O)NC(C)(C)Cc1cnn(-c2ccc(C(F)(F)F)cc2S(C)(=O)=O)c(=O)c1O [Compound 1.044]	2 (2=20-39%)	5 (5=80-100%)	1 (1=0-19%)	4 (4=60-79%)	5 (5=80-100%)	4 (4=60-79%)	2 (2=20-39%)	5 (5=80-100%)	1 (1=0-19%)	4 (4=60-79%)	5 (5=80-100%)	4 (4=60-79%)
CS(=O)(=O)c1cc(C(F)(F)F)ccc1-n1ncc(Br)c(O)c1=O [Compound 1.032]	5 (5=80-100%)	5 (5=80-100%)	5 (5=80-100%)	5 (5=80-100%)	5 (5=80-100%)	5 (5=80-100%)	5 (5=80-100%)	5 (5=80-100%)	5 (5=80-100%)	5 (5=80-100%)	5 (5=80-100%)	5 (5=80-100%)
Cc1nc(C(F)(F)F)ccc1-n1nccc(O)c1=O.O=C(O)C(F)(F)F [Compound 1.027]	4 (4=60-79%)	4 (4=60-79%)	1 (1=0-19%)	5 (5=80-100%)	5 (5=80-100%)	5 (5=80-100%)	4 (4=60-79%)	4 (4=60-79%)	1 (1=0-19%)	5 (5=80-100%)	5 (5=80-100%)	5 (5=80-100%)
C=C(C)c1cnn(-c2ccc(C(F)(F)F)nc2C)c(=O)c1O [Compound 1.024]	5 (5=80-100%)	5 (5=80-100%)	5 (5=80-100%)	5 (5=80-100%)	5 (5=80-100%)	5 (5=80-100%)	5 (5=80-100%)	5 (5=80-100%)	5 (5=80-100%)	5 (5=80-100%)	5 (5=80-100%)	5 (5=80-100%)
C=Cc1cnn(-c2ccc(C(F)(F)F)nc2C)c(=O)c1O [Compound 1.021]	5 (5=80-100%)	5 (5=80-100%)	3 (3=40-59%)	5 (5=80-100%)	5 (5=80-100%)	5 (5=80-100%)	5 (5=80-100%)	5 (5=80-100%)	3 (3=40-59%)	5 (5=80-100%)	5 (5=80-100%)	5 (5=80-100%)
CCc1cnn(-c2ccc(C(F)(F)F)cc2S(C)(=O)=O)c(=O)c1O [Compound 1.045]	5 (5=80-100%)	5 (5=80-100%)	5 (5=80-100%)	5 (5=80-100%)	5 (5=80-100%)	5 (5=80-100%)	5 (5=80-100%)	5 (5=80-100%)	5 (5=80-100%)	5 (5=80-100%)	5 (5=80-100%)	5 (5=80-100%)
